Results: article PMC8507746, “The FHP01 DDX3X Helicase Inhibitor Exerts Potent Anti-Tumor Activity In Vivo in Breast Cancer Pre-Clinical Models” (Cancers, 2021)

Target: T1, HA-DDX3X immunoprecipitated from 293T cells (Homo sapiens, UniProt O00571)
T1 construct: host or cells: 293T cells, transient transfection, anti-HA immunoprecipitation; protein used on beads
Test: Qualitative in vitro helicase assay with immunoprecipitated HA-DDX3X (dsRNA unwinding)
Assay type: biochemical
Details: human protein immunoprecipitated from 293T cells
Method: 293T cells (3 × 10^5) were seeded in 6-well plates and, after 24 h, transfected with 1 μg of HA-DDX3 (Addgene plasmid # 44975) by using the Lipofectamine reagent (Thermo Fischer Scientific, Waltham, MA, USA). After 36 h, cells were lysed in NP-40 Lysis Buffer (20 mM HEPES pH = 7.5, 10 mM EGTA pH = 8, 40 mM β-glycerolphosphate, 1% NP40, 2.5 mM MgCl2, 2 mM Orthovanadate, 2 mM NaF, 1 mM DTT, and 1X protease inhibitors mixture) and 2 mg of proteins were immunoprecipitated with anti-HA antibodies (Covance, Princeton, NJ, USA) in NP40 lysis buffer. Immunoprecipitated samples were washed twice with lysis buffer and one time in helicase reaction buffer (50 mM Tris HCl pH = 8, 1 mM DTT, 5% glycerol, 10 mM MgCl2). Beads were then resuspended in 100 μL in helicase reaction buffer. […]
Ultimately, reactions were performed in a final volume 100 μL of helicase reaction buffer plus ATP 4 mM, 30 μL of beads used to immunoprecipitate HA-DDX3X, 20 nM of 18/36mer dsRNA, and 100 nM of competitor at 37 °C for 1 h and stopped by adding 10 μL of a stopping solution (EDTA 60 mM pH = 8, 40% glycerol, 0,6% SDS, 1% Orange G). […] Quantification of the ssRNA was performed by the ImageJ software (National Institutes of Health, Bethesda, MD, USA).

T1 sequence (O00571 whole entry): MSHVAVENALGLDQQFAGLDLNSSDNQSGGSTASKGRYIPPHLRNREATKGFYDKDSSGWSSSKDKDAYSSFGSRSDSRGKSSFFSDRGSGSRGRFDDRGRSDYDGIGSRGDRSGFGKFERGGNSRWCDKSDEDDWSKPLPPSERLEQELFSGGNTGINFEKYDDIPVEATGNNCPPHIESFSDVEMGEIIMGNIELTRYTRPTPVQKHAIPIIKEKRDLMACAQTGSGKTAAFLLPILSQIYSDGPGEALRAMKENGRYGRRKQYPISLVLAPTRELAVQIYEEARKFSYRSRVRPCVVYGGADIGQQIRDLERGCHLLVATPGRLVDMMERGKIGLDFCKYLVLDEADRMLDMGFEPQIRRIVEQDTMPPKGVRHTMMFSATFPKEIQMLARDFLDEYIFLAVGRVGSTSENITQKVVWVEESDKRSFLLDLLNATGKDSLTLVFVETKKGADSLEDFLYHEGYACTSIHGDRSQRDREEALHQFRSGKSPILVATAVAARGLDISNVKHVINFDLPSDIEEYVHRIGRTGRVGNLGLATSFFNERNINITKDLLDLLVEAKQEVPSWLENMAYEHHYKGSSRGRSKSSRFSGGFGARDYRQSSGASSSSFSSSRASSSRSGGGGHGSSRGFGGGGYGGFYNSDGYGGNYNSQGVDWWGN

inhibition of DDX3X helicase activity, qualitative: activity comparable to RK33
Compound: CCCCc1cn(-c2ccc(NC(=O)Nc3ccccc3C(F)(F)F)cc2)nn1 [FHP01]
